Results published in patent publication US8809364B2, “Polycyclic aryl substituted triazoles and polycyclic heteroaryl substituted triazoles useful as axl inhibitors” (priority 2007, dated 2014).

Each compound was assayed against T1, Axl (Homo sapiens, UniProt P30530) (assay: Phospho-Akt In-Cell Western Assay (inhibition of Axl activity)). Conditions: Hela cells, Axl antibody cross-linking stimulation, phospho-Akt chemiluminescence normalized to cell number; compound of formula (Ib), Table 2.
T1 construct: endogenous in cells; host or cells: HeLa cells
T1 sequence (P30530 26-894): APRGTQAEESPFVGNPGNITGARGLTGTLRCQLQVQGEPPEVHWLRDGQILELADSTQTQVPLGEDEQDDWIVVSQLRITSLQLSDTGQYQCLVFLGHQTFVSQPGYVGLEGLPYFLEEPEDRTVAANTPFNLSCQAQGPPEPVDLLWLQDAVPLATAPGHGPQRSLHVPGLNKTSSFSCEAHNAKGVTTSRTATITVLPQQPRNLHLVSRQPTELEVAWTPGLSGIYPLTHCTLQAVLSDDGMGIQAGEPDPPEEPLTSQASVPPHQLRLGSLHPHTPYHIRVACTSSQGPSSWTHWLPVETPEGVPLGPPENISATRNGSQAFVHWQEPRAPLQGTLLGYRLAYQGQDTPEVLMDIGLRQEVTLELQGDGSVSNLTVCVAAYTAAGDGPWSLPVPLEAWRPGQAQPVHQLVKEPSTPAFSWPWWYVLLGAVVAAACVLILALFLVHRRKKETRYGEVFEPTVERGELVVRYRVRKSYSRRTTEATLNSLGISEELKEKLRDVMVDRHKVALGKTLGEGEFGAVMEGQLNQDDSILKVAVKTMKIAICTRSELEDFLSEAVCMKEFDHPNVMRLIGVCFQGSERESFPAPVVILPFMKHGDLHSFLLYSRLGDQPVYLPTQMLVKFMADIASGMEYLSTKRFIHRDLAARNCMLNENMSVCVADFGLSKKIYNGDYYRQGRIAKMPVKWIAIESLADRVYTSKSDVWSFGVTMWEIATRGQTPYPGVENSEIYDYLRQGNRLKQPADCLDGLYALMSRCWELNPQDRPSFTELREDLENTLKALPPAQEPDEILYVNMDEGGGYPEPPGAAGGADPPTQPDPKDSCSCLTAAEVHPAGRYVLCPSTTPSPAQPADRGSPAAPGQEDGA
Assay type: cell-based
Experimental: The compounds of the invention were tested in the following assay for their ability to inhibit Axl activity.
Phospho-Akt In-Cell Western Assay
• Cell culture plate: 96 well assay plate (Corning 3610), white, clear bottom, tissue-culture treated. • Cells: Hela cells. • Starvation medium: For Axl stimulation: 0.5% FCS (fetal calf serum) in DMEM, plus Axl/Fc (extracellular domain of AXL fused to immunoglobulin Fc region) (R&D, 154-AL) 500 ng/mL. • For EGF (epidermal growth factor) stimulation: 0.5% FCS in DMEM (Dulbecco's modified Eagles medium). • Poly-L-Lysine 0.01% solution (the working solution): 10 μg/ml, dilute In PBS (phosphate buffered saline). • Axl antibody cross-linking: • 1st: Mouse anti-Axl (R&D, MAB154). • 2nd: Biotin-SP-conjugated AffiniPure goat anti-mouse IgG (H+L) (Jackson ImmunoResearch #115-065-003). • Fixing buffer: 4% formaldehyde in PBS. • Wash buffer: 0.1% TritonX-100 in PBS. • Quenching buffer: 3% H2O2, 0.1% Azide in wash buffer, Azide and hydrogen peroxide (H2O2) are added fresh. • Blocking buffer: 5% BSA in TBST (tris buffered saline plus 0.1% Tween 20). • Primary antibody: Rabbit anti-human Phospho-Akt antibody (Cell Signaling 9271): 1×250 diluted in blocking buffer. • Secondary antibody: HRP (horse radish peroxidase)-conjugated Goat anti-Rabbit secondary, stock solution: Jackson ImmunoResearch (Goat anti-Rabbit HRP, #111-035-144) 1:1 diluted in glycerol, store at −20° C. The working solution: 1×2000 dilution of stock in blocking buffer. • Chemiluminescent working solution (Pierce, 37030): SuperSignal ELISA (enzyme linked immunosorbant assay) Pico Chemiluminescent substrate. • Crystal Violet solution: Stock: 2.5% Crystal violet in methanol, filtered and kept at ambient temperature. The working solution: dilute the stock 1:20 with PBS immediately before use. • 10% SDS: working solution: 5% SDS (sodium dodecylsulfate), diluted in PBS Methods: Day 1:
A 96 well TC (tissue culture treated) plate was coated with 10 μg/mL poly-L-Lysine at 37° C. for 30 min, washed twice with PBS, and air-dried for 5 minutes before cells were added. Hela cells were seeded at 10,000 cells/well and the cells were starved in 100 μL starvation medium containing Axl/Fc for 24 hrs.
The cells were pre-treated with test compounds by adding 100 μL of 2× test compound to the starvation medium on the cells. The cells were incubated at 37° C. for 1 hr before stimulation.
The cells were stimulated by Axl-antibody cross-linking as follows: A 5×1^St/2nd Axl antibody mixture was made (37.5 μg/mL 1st/100 μg/mL 2nd) in starvation medium and nutated at 4° C. with thorough mixing for 1-2 hours for clustering. The resulting mix was warmed to 37° C. 50 μL of 5×Axl 1st/2nd of antibody cluster was added to the cells and the cells were incubated at 37° C. for 5 min.
After 5 minutes stimulation, the plate was flicked to remove medium and the plate was tapped onto paper towels. Formaldehyde (4.0% in PBS, 100 μL) was added to fix the cells and the cells were incubated at ambient temperature for 20 min without shaking.
The cells were washed with a plate washer buffer to remove the formaldehyde solution. The plate was flicked to removed excess wash buffer and tapped onto paper towels. Quenching buffer (100 μL) was added to each well and the cells were incubated at ambient temperature for 20 minutes without shaking.
The cells were washed with a plate washer buffer to remove the quenching buffer. Blocking buffer (100 μL) was added and the cells were incubated at ambient temperature for at least an hour with gentle shaking.
The cells were washed with a plate washer buffer and diluted primary antibody (50 μL) was added to each well (blocking buffer was added to the negative control wells instead). The plates were incubated overnight at 4° C. with gentle shaking.
The wash buffer was removed, diluted secondary antibody (100 μL) was added, and the cells were incubated at ambient temperature for 1 hour with gentle shaking. […]

| IC50 [nM] | SMILES |
| --- | --- |
| 1000 to 10000 | Nc1nc(Nc2ccc3c(c2)C(=O)NCCCC3)n(-c2cc3c(nn2)-c2ccccc2CCC3)n1 [Compound 15, 1-(6,7-dihydro-5H-benzo[6,7]cyclohepta[1,2-c]pyridazin-3-yl)-N^5-(1(2H)-oxo-3,4,5,6-tetrahydrobenzo[c]azocin-9-yl)-1H-1,2,4-triazole-3,5-diamine] |

Same assay, conditions: Hela cells, Axl antibody cross-linking stimulation, phospho-Akt chemiluminescence normalized to cell number; compounds of formula (Ia), Table 1

| SMILES | IC50 [nM] |
| --- | --- |
| Nc1nc(Nc2ccc3c(c2)CC(N2CCCC2)CCCC3)nn1-c1cc2c(nn1)-c1ccccc1CCC2 (centres unmarked) [Compound 5, 1-(6,7-dihydro-5H-benzo[6,7]cyclohepta[1,2-c]pyridazin-3-yl)-N^3-(6-pyrrolidin-1-yl-5,6,7,8,9,10-hexahydrobenzo[8]annulene-3-yl)-1H-1,2,4-triazole-3,5-diamine] | 1000 to 10000 |
| Nc1nc(Nc2cnc3c(c2)CCC(=O)CCC3)nn1-c1cc2c(nn1)-c1ccccc1CCC2 [Compound 6, 1-(6,7-dihydro-5H-benzo[6,7]cyclohepta[1,2-c]pyridazin-3-yl)-N^3-(7-oxo-5,6,8,9,10-pentahydrocycloocta[b]pyridin-3-yl)-1H-1,2,4-triazole-3,5-diamine] | < 1000 |
| Nc1nc(Nc2ccc3c(c2)CCC(=O)NCC3)nn1-c1cc2c(nn1)-c1ccccc1CCC2 [Compound 1, 1-(6,7-dihydro-5H-benzo[6,7]cyclohepta[1,2-c]pyridazin-3-yl)-N^3-(4(1H)-oxo-2,3,5,6-tetrahydrobenzo[d]azocin-8-yl)-1H-1,2,4-triazole-3,5-diamine] | < 1000 |
| Nc1nc(Nc2ccc3c(c2)CCN(C2CCCC2)CCC3)nn1-c1cc2c(nn1)-c1ccccc1CCC2 [Compound 3, 1-(6,7-dihydro-5H-benzo[6,7]cyclohepta[1,2-c]pyridazin-3-yl)-N^3-(3-cyclopentyl-1,2,3,4,5,6-hexahydrobenzo[d]azocin-9-yl)-1H-1,2,4-triazole-3,5-diamine] | < 1000 |
| Nc1nc(Nc2cnc3c(c2)CCC(=O)CCC3)nn1-c1cc(-c2ccncc2)c2c(n1)C1CCN2CC1 [Compound 10, 1-(1,4-ethano-8-pyridin-4-yl-1,2,3,4-tetrahydro-1,5-naphthyridin-6-yl)-N^3-(7-oxo-5,6,7,8,9,10-hexahydrocycloocta[b]pyridin-3-yl)-1H-1,2,4-triazole-3,5-diamine] | < 1000 |
| Nc1nc(Nc2ccc3c(c2)CCCN(C2CCCC2)CC3)nn1-c1cc2c(nn1)-c1ccccc1CCC2 [Compound 2, 1-(6,7-dihydro-5H-benzo[6,7]cyclohepta[1,2-c]pyridazin-3-yl)-N^3-(3-cyclopentyl-1,2,3,4,5,6-hexahydrobenzo[d]azocin-8-yl)-1H-1,2,4-triazole-3,5-diamine] | 1000 to 10000 |
| Nc1nc(Nc2ccc3c(c2)CC2CCC(C3)C2N2CCCC2)nn1-c1cc2c(nn1)-c1ccccc1CCC2 (centres unmarked) [Compound 4, 1-(6,7-dihydro-5H-benzo[6,7]cyclohepta[1,2-c]pyridazin-3-yl)-N^3-(7-pyrrolidin-1-yl-6,8-ethano-6,7,8,9-tetrahydro-5H-benzo[7]annulene-3-yl)-1H-1,2,4-triazole-3,5-diamine] | < 1000 |

Next, values leading:

| IC50 [nM] | SMILES |
| --- | --- |
| 1000 to 10000 | Nc1nc(Nc2ccc3c(c2)CNCCCC3)nn1-c1cc2c(nn1)-c1ccccc1CCC2 [Compound 13, 1-(6,7-dihydro-5H-benzo[6,7]cyclohepta[1,2-c]pyridazin-3-yl)-N^3-(1,2,3,4,5,6-hexahydrobenzo[c]azocin-9-yl)-1H-1,2,4-triazole-3,5-diamine] |
| 1000 to 10000 | CON=C1CCCc2ncc(Nc3nc(N)n(-c4cc5c(nn4)-c4ccccc4CCC5)n3)cc2CC1 (racemic) [Compound 8, 1-(6,7-dihydro-5H-benzo[6,7]cyclohepta[1,2-c]pyridazin-3-yl)-N^3-(7-(methoxyimino)-5,6,7,8,9,10-hexahydrocycloocta[b]pyridin-3-yl)-1H-1,2,4-triazole-3,5-diamine] |
| < 1000 | Nc1nc(Nc2cnc3c(c2)CCC(N2CCCC2)CCC3)nn1-c1cc2c(nn1)-c1ccccc1CCC2 (centres unmarked) [Compound 7, 1-(6,7-dihydro-5H-benzo[6,7]cyclohepta[1,2-c]pyridazin-3-yl)-N^3-(7-(pyrrolidin-1-yl)-5,6,7,8,9,10-hexahydrocycloocta[b]pyridin-3-yl)-1H-1,2,4-triazole-3,5-diamine] |
| 1000 to 10000 | Nc1nc(Nc2ccc3c(c2)C(=O)NCCCC3)nn1-c1cc2c(nn1)-c1ccccc1CCC2 [Compound 11, 1-(6,7-dihydro-5H-benzo[6,7]cyclohepta[1,2-c]pyridazin-3-yl)-N^3-(1(2H)-oxo-3,4,5,6-tetrahydrobenzo[c]azocin-9-yl)-1H-1,2,4-triazole-3,5-diamine] |
| 1000 to 10000 | Nc1nc(Nc2cnc3c(c2)CCC(O)CCC3)nn1-c1cc2c(nn1)-c1ccccc1CCC2 (centres unmarked) [Compound 9, 1-(6,7-dihydro-5H-benzo[6,7]cyclohepta[1,2-c]pyridazin-3-yl)-N^3-(7-hydroxy-5,6,7,8,9,10-hexahydrocycloocta[b]pyridin-3-yl)-1H-1,2,4-triazole-3,5-diamine] |
| 1000 to 10000 | Nc1nc(Nc2ccc3c(c2)CCC2(CC3)OCCO2)nn1-c1ncnc2c1CCCCCC2 [Compound 14, 1-(5,6,7,8,9,10-hexahydrocycloocta[d]pyrimidin-4-yl)-N^3-(5,6,8,9-tetrahydrospiro[benzo[7]annulene-7,2′-[1,3]dioxolane]-3-yl)-1H-1,2,4-triazole-3,5-diamine] |
